Literature values as cited in patent publication US12434072B2, “Methods and systems for neural stimulation via visual, auditory and peripheral nerve stimulations” (Cognito Therapeutics, Inc., priority 2016, dated 2025).

What was measured:
[1] = 70 kg adult
[2] = human clinical trials; low (tracer) doses

Row | Estimated absorbed radiation dose, Adrenals [1] | Estimated absorbed radiation dose, Brain [1] | Estimated absorbed radiation dose, Breasts [1] | Estimated absorbed radiation dose, Gallbladder Wall [1] | Estimated absorbed radiation dose, Heart Wall [1] | Estimated absorbed radiation dose, Kidneys [1] | Estimated absorbed radiation dose, Liver [1] | Estimated absorbed radiation dose, Lower Large Intestine Wall [1] | Estimated absorbed radiation dose, Lungs [1] | Estimated absorbed radiation dose, Muscle [1] | Estimated absorbed radiation dose, Ovaries [1] | Estimated absorbed radiation dose, Pancreas [1] | Estimated absorbed radiation dose, Red marrow [1] | Estimated absorbed radiation dose, Skin [1] | Estimated absorbed radiation dose, Small Intestine [1] | Estimated absorbed radiation dose, Spleen [1] | Estimated absorbed radiation dose, Testes [1] | Estimated absorbed radiation dose, Thymus [1] | Estimated absorbed radiation dose, Thyroid [1] | Estimated absorbed radiation dose, Total Body [1] | SMILES | also measured
1 | 0.05 rad/mCi | 0.037 rad/mCi | 0.023 rad/mCi | 0.529 rad/mCi | 0.048 rad/mCi | 0.048 rad/mCi | 0.238 rad/mCi | 0.103 rad/mCi | 0.032 rad/mCi | 0.032 rad/mCi | 0.065 rad/mCi | 0.053 rad/mCi | 0.053 rad/mCi | 0.022 rad/mCi | 0.242 rad/mCi | 0.033 rad/mCi | 0.025 rad/mCi | 0.027 rad/mCi | 0.025 rad/mCi | 0.043 rad/mCi | CNc1ccc(/C=C/c2ccc(OCCOCCOCC[18F])nc2)cc1 [18F-AV-45] | Effective Dose ([1]; Effective Dose): 0.069 rad/mCi; Estimated absorbed radiation dose, Upper Large Intestine Wall [1]: 0.276 rad/mCi; Estimated absorbed radiation dose, Urinary bladder wall [1]: 0.1 rad/mCi; Estimated absorbed radiation dose, Uterus [1]: 0.058 rad/mCi; Most common adverse events [2]: headache, injection site reactions (injection site rash, extravasation, hemorrhage, irritation and puncture site hematoma), musculoskeletal pain, fatigue, and nausea
2 | 0.048 rad/mCi | 0.07 rad/mCi | 0.034 rad/mCi | 0.049 rad/mCi | 0.22 rad/mCi | 0.074 rad/mCi | 0.058 rad/mCi | 0.051 rad/mCi | 0.064 rad/mCi | 0.039 rad/mCi | 0.053 rad/mCi | 0.096 rad/mCi | 0.047 rad/mCi | 0.03 rad/mCi | 0.047 rad/mCi | 0.14 rad/mCi | 0.041 rad/mCi | 0.044 rad/mCi | 0.039 rad/mCi | 0.043 rad/mCi | OC[C@H]1O[C@@H](O)[C@H]([18F])[C@@H](O)[C@@H]1O [FDG] | Critical organ for radiation dose [1]: urinary bladder wall, followed by heart, spleen and pancreas; Estimated absorbed radiation dose, Upper Large Intestine Wall [1]: 0.046 rad/mCi; Estimated absorbed radiation dose, Urinary bladder wall [1]: 0.32 rad/mCi; Estimated absorbed radiation dose, Uterus [1]: 0.062 rad/mCi
